Experimental data as given in PubChem BioAssay AID200 (DTP/NCI, 2004).
“And” between values parts separate entries of the source, which are not always exact repeats. Equal entries are not always repeated. Toxic doses and inconclusive results are not listed.

System: B6C3F1 mice, B16 melanoma ip, median survival T/C
Assay: NCI In Vivo Anticancer Drug Screen. Data for tumor model B16 Melanoma (intraperitoneal) in B6C3F1 mice
Conditions: endpoint: median survival time, schedule: Q01DX009 (ip), higher = longer survival
Outline: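 Readout: survival or tumor size in treated mice relative to vehicle controls (T/C). Model uses transplantable tumors grown in mice.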

[1] = dose: 12.5 mg/kg/injection, vehicle: saline
[2] = dose: 100.0 mg/kg/injection, vehicle: saline
[3] = dose: 200.0 mg/kg/injection, vehicle: saline
[4] = dose: 12.5 mg/kg/injection, vehicle: Klucel (hydroxypropylcellulose) (HPC)
[5] = dose: 25.0 mg/kg/injection, vehicle: Klucel (hydroxypropylcellulose) (HPC)
[6] = dose: 50.0 mg/kg/injection, vehicle: Klucel (hydroxypropylcellulose) (HPC)
[7] = dose: 100.0 mg/kg/injection, vehicle: Klucel (hydroxypropylcellulose) (HPC)
[8] = dose: 200.0 mg/kg/injection, vehicle: Klucel (hydroxypropylcellulose) (HPC)
[9] = dose: 6.25 mg/kg/injection, vehicle: Klucel (hydroxypropylcellulose) (HPC)
[10] = dose: 12.5 mg/kg/injection, vehicle: saline with Tween-80
[11] = dose: 25.0 mg/kg/injection, vehicle: saline with Tween-80
[12] = dose: 50.0 mg/kg/injection, vehicle: saline with Tween-80
[13] = dose: 100.0 mg/kg/injection, vehicle: saline with Tween-80
[14] = dose: 6.25 mg/kg/injection, vehicle: saline
[15] = dose: 200.0 mg/kg/injection, vehicle: saline with Tween-80
[16] = dose: 400.0 mg/kg/injection, vehicle: saline with Tween-80
[17] = dose: 800.0 mg/kg/injection, vehicle: saline with Tween-80
[18] = dose: 50.0 mg/kg/injection, vehicle: saline

Cc1c2ccncc2c(COC2OC(CO)C(O)C2O)c2c3ccccc3n(C)c12 (stereo not given)
T/C [1]: 123 % of control | T/C [2]: 98 % of control | T/C [3]: 121 % of control

CCCCC(CC)(CC(=N)C(C)(C)C)c1ccccc1 (stereo not given)
T/C (dose: 25.0 mg/kg/injection, vehicle: saline + Tween-80 + alcohol): 104 % of control | T/C (dose: 50.0 mg/kg/injection, vehicle: saline + Tween-80 + alcohol): 96 % of control

O=c1ccn(C2OC(CO)C(O)C2O)c(=O)[nH]1 (stereo not given)
T/C [4]: 97 % of control | T/C [5]: 99 % of control | T/C [6]: 104 % of control | T/C [7]: 95 % of control | T/C [8]: 99 % of control | T/C (dose: 400.0 mg/kg/injection, vehicle: Klucel (hydroxypropylcellulose) (HPC)): 102 % of control | T/C (dose: 800.0 mg/kg/injection, vehicle: Klucel (hydroxypropylcellulose) (HPC)): 102 % of control

N=C(N)c1nn(C2OC(CO)C(O)C2O)c2nc[nH]c(=O)c12 (stereo not given)
T/C (dose: 2.25 mg/kg/injection, vehicle: Klucel (hydroxypropylcellulose) (HPC)): 92 % of control and 102 % of control | T/C (dose: 3.12 mg/kg/injection, vehicle: Klucel + Tween-80): 99 % of control | T/C (dose: 3.75 mg/kg/injection, vehicle: Klucel (hydroxypropylcellulose) (HPC)): 112 % of control and 101 % of control | T/C [9]: 112 % of control and 90 % of control | T/C (dose: 10.42 mg/kg/injection, vehicle: Klucel (hydroxypropylcellulose) (HPC)): 92 % of control | T/C (dose: 17.36 mg/kg/injection, vehicle: Klucel (hydroxypropylcellulose) (HPC)): 110 % of control and 98 % of control

COc1cc(C(=O)N/N=C/c2cccc([N+](=O)[O-])c2)cc(OC)c1OC
T/C [10]: 88 % of control | T/C [11]: 90 % of control

c1ccc(P(CCNCCP(c2ccccc2)c2ccccc2)c2ccccc2)cc1
T/C [11]: 113 % of control | T/C [12]: 105 % of control | T/C [13]: 116 % of control

Nc1nc(N)c(N=O)c(Nc2ccc(Br)cc2)n1
T/C [11]: 114 % of control | T/C [12]: 107 % of control | T/C [13]: 106 % of control

CN=S(=O)(OCCCCCOS(=O)(=NC)c1ccccc1)c1ccccc1 (stereo not given)
T/C [10]: 112 % of control and 201 % of control | T/C [11]: 119 % of control | T/C [13]: 198 % of control

O=C(NNC(=O)c1cccc(C(=O)NNC(=O)c2ccc(Cl)c(Cl)c2)n1)c1ccc(Cl)c(Cl)c1
T/C [4]: 94 % of control and 105 % of control | T/C [5]: 102 % of control | T/C [6]: 91 % of control and 102 % of control | T/C [7]: 94 % of control and 103 % of control | T/C [8]: 105 % of control

CCOc1ccc(-c2nc3ccc(-c4nc5ccc(N6CCN(C)CC6)cc5[nH]4)cc3[nH]2)cc1
T/C (dose: 1.56 mg/kg/injection, vehicle: saline): 113 % of control | T/C (dose: 3.12 mg/kg/injection, vehicle: saline): 114 % of control | T/C [14]: 110 % of control | T/C [1]: 110 % of control

O=C(NC(Cc1ccccc1)C(=O)O)c1ccccc1 (stereo not given)
T/C [11]: 112 % of control | T/C [12]: 112 % of control and 90 % of control | T/C [13]: 96 % of control and 100 % of control

C[C@H]1C[C@@H]2[C@H]([C@@H](O)C[C@@]3(C)[C@H]2CC[C@]3(O)C(=O)CO)[C@@]2(C)C=CC(=O)C=C12
T/C [9]: 115 % of control and 101 % of control | T/C [4]: 110 % of control and 101 % of control | T/C [5]: 114 % of control and 107 % of control | T/C [6]: 109 % of control and 111 % of control | T/C [7]: 118 % of control and 119 % of control | T/C [8]: 112 % of control and 121 % of control

COc1ccc2c(c1[N+](=O)[O-])CC[C@@H]1[C@@H]2CC[C@]2(C)C(=O)CC[C@@H]12
T/C [12]: 94 % of control and 95 % of control | T/C [13]: 91 % of control and 108 % of control | T/C [15]: 90 % of control | T/C [16]: 91 % of control | T/C [17]: 91 % of control

CCC12C[N+]3([O-])CCc4c([nH]c5ccccc45)C(C(=O)OC)(c4cc5c(cc4OC)N(C)C4C(O)(C(=O)OC)C(OC(C)=O)C6(CC)C=CCN7CCC54C76)CC(C3)C1O2 (stereo not given)
T/C (dose: 0.62 mg/kg/injection, vehicle: water): 112 % of control | T/C (dose: 1.25 mg/kg/injection, vehicle: water): 104 % of control and 107 % of control | T/C (dose: 2.5 mg/kg/injection, vehicle: saline): 185 % of control | T/C (dose: 5.0 mg/kg/injection, vehicle: saline): 246 % of control | T/C (dose: 5.0 mg/kg/injection, vehicle: water): 108 % of control and 261 % of control | T/C (dose: 10.0 mg/kg/injection, vehicle: saline): 373 % of control | T/C (dose: 10.0 mg/kg/injection, vehicle: water): 121 % of control and 309 % of control

O=C1CN(CN2CCOCC2)C(=O)CN1CN1CCOCC1
T/C [10]: 88 % of control | T/C [11]: 94 % of control | T/C [12]: 93 % of control | T/C [13]: 102 % of control | T/C [15]: 100 % of control

N#C[Se-].c1ccc([Te+](c2ccccc2)c2ccccc2)cc1
T/C (dose: 1.56 mg/kg/injection, vehicle: Klucel (hydroxypropylcellulose) (HPC)): 92 % of control | T/C (dose: 3.12 mg/kg/injection, vehicle: Klucel (hydroxypropylcellulose) (HPC)): 97 % of control | T/C [9]: 96 % of control | T/C [4]: 96 % of control

NS(=O)(=O)OCCCCCCCOS(N)(=O)=O
T/C [10]: 115 % of control | T/C [12]: 171 % of control

O=C(/C=C(\Cl)C(=O)NO)NO
T/C [14]: 100 % of control and 105 % of control | T/C [1]: 91 % of control and 100 % of control | T/C (dose: 25.0 mg/kg/injection, vehicle: saline): 97 % of control and 104 % of control | T/C [18]: 108 % of control | T/C [2]: 91 % of control

CCOC(=O)Nc1cc2c(c(N)n1)N=C(c1ccccc1)CO2
T/C [11]: 112 % of control and 118 % of control | T/C [12]: 111 % of control and 118 % of control | T/C [13]: 115 % of control and 124 % of control | T/C (dose: 103.68 mg/kg/injection, vehicle: saline with Tween-80): 106 % of control | T/C [16]: 150 % of control and 198 % of control | T/C (dose: 480.0 mg/kg/injection, vehicle: saline with Tween-80): 165 % of control | T/C [17]: 172 % of control

C[CH2][Pb]([CH2]C)([CH2]C)[O]C(=O)COc1ccccc1
T/C (dose: 0.38 mg/kg/injection, vehicle: Klucel (hydroxypropylcellulose) (HPC)): 94 % of control | T/C (dose: 0.75 mg/kg/injection, vehicle: Klucel (hydroxypropylcellulose) (HPC)): 105 % of control | T/C (dose: 1.5 mg/kg/injection, vehicle: Klucel (hydroxypropylcellulose) (HPC)): 101 % of control | T/C (dose: 3.0 mg/kg/injection, vehicle: Klucel (hydroxypropylcellulose) (HPC)): 91 % of control | T/C (dose: 6.0 mg/kg/injection, vehicle: Klucel (hydroxypropylcellulose) (HPC)): 97 % of control

Cn1c(=O)c2c(nc(CCCCc3nc4c(c(=O)n(C)c(=O)n4C)n3C)n2C)n(C)c1=O
T/C (dose: 0.78 mg/kg/injection, vehicle: saline with Tween-80): 91 % of control | T/C (dose: 1.56 mg/kg/injection, vehicle: saline with Tween-80): 109 % of control | T/C (dose: 3.13 mg/kg/injection, vehicle: saline with Tween-80): 93 % of control | T/C (dose: 6.25 mg/kg/injection, vehicle: saline with Tween-80): 93 % of control

c1ccc2c3c(ccc2c1)Sc1ccc2ccccc2c1N3
T/C [18]: 112 % of control | T/C [2]: 112 % of control | T/C [3]: 112 % of control | T/C (dose: 400.0 mg/kg/injection, vehicle: saline): 123 % of control

COC1C(C)OC(OC2CC(C)(O)Cc3cc4c(c(O)c32)C(=O)c2c(O)cc3c(c2C4=O)OC2OC3(C)C(O)C(N(C)C)C2O)C(OC)C1(C)OC (stereo not given)
T/C (dose: 0.16 mg/kg/injection, vehicle: other): 92 % of control | T/C (dose: 0.31 mg/kg/injection, vehicle: other): 95 % of control and 102 % of control | T/C (dose: 0.62 mg/kg/injection, vehicle: other): 113 % of control | T/C (dose: 0.63 mg/kg/injection, vehicle: other): 116 % of control and 124 % of control and 97 % of control | T/C (dose: 5.0 mg/kg/injection, vehicle: other): 157 % of control and 175 % of control
